Several values for one entry are separate records, joined by “and”; a condition that tells them apart may be missing. Equal values may be shown once. Inconclusive results and toxic doses are left out. Rule as the data show it: active = T/C of 150% or more; inactive = T/C below 125%.
Test system: L1210 leukemia ip in BDF1 mice, survival T/C
Assay: NCI In Vivo Anticancer Drug Screen. Data for tumor model L1210 Leukemia (intraperitoneal) in B6D2F1 (BDF1) mice
Conditions: endpoint: mean survival time, higher = longer survival
Method in brief: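 Value reflects the ratio of survival in compound-treated mice to survival in vehicle-treated controls, with both groups carrying the same transplanted tumor.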

[1] = dose: 100.0 mg/kg/injection, schedule: Q01DX001 (ip), vehicle: saline
[2] = dose: 200.0 mg/kg/injection, schedule: Q01DX001 (ip), vehicle: saline
[3] = dose: 20.0 mg/kg/injection, schedule: Q04DX003 (ip), vehicle: saline
[4] = dose: 40.0 mg/kg/injection, schedule: Q04DX003 (ip), vehicle: saline
[5] = dose: 100.0 mg/kg/injection, schedule: Q01DX009 (ip), vehicle: Klucel (hydroxypropylcellulose) (HPC)
[6] = dose: 100.0 mg/kg/injection, schedule: Q04DX003 (ip), vehicle: Klucel (hydroxypropylcellulose) (HPC)
[7] = dose: 200.0 mg/kg/injection, schedule: Q01DX009 (ip), vehicle: Klucel (hydroxypropylcellulose) (HPC)
[8] = dose: 200.0 mg/kg/injection, schedule: Q04DX003 (ip), vehicle: Klucel (hydroxypropylcellulose) (HPC)
[9] = dose: 400.0 mg/kg/injection, schedule: Q01DX009 (ip), vehicle: Klucel (hydroxypropylcellulose) (HPC)
[10] = dose: 400.0 mg/kg/injection, schedule: Q04DX003 (ip), vehicle: Klucel (hydroxypropylcellulose) (HPC)
[11] = dose: 100.0 mg/kg/injection, schedule: Q01DX009 (ip), vehicle: other
[12] = dose: 200.0 mg/kg/injection, schedule: Q01DX009 (ip), vehicle: other

Measured: T/C

CN(C)c1ccc(N=O)cc1
inactive: dose: 0.78 mg/kg/injection, schedule: Q04DX002 (ip), vehicle: saline 89 % of control | dose: 1.56 mg/kg/injection, schedule: Q01DX009 (ip), vehicle: saline 93 % of control | dose: 1.56 mg/kg/injection, schedule: Q04DX002 (ip), vehicle: saline 95 % of control | dose: 3.13 mg/kg/injection, schedule: Q01DX009 (ip), vehicle: saline 93 % of control | dose: 3.13 mg/kg/injection, schedule: Q04DX002 (ip), vehicle: saline 95 % of control | dose: 6.25 mg/kg/injection, schedule: Q01DX009 (ip), vehicle: saline 97 % of control | dose: 6.25 mg/kg/injection, schedule: Q04DX002 (ip), vehicle: saline 100 % of control

O=C(O)CS(=O)(=O)CC(=O)O
inactive: dose: 100.0 mg/kg/injection, schedule: Q04DX003 (ip), vehicle: saline with Tween-80 98 % of control | dose: 200.0 mg/kg/injection, schedule: Q04DX003 (ip), vehicle: saline with Tween-80 93 % of control

Cc1cc(=O)c2c(C)cccc2[nH]1
inactive: dose: 6.25 mg/kg/injection, schedule: Q01DX009 (ip), vehicle: saline sonified 101 % of control | dose: 6.25 mg/kg/injection, schedule: Q04DX003 (ip), vehicle: saline with Tween-80 90 % of control | dose: 12.5 mg/kg/injection, schedule: Q01DX009 (ip), vehicle: saline sonified 99 % of control | dose: 25.0 mg/kg/injection, schedule: Q01DX009 (ip), vehicle: saline sonified 99 % of control | dose: 25.0 mg/kg/injection, schedule: Q04DX003 (ip), vehicle: saline with Tween-80 92 % of control

O=C(N1CCOCC1)C1(c2ccccc2)CCNCC1
inactive: dose: 100.0 mg/kg/injection, schedule: Q04DX003 (ip), vehicle: saline 98 % of control | dose: 200.0 mg/kg/injection, schedule: Q04DX003 (ip), vehicle: saline 93 % of control

CCCCC1(CC)C(=O)NC(=S)NC1=O
inactive: [1] 114 % of control | [2] 104 % of control

CC(C)(C)C#CC#CC(C)(C)C
inactive: dose: 10.0 mg/kg/injection, schedule: Q04DX003 (ip), vehicle: saline 95 % of control | [3] 100 % of control | [4] 92 % of control

CNC(=O)NC1CCCCC1
inactive: dose: 100.0 mg/kg/injection, schedule: Q01DX001 (ip), vehicle: carboxymethylcellulose (CMC) 106 % of control | dose: 100.0 mg/kg/injection, schedule: Q01DX009 (ip), vehicle: carboxymethylcellulose (CMC) 92 % of control and 98 % of control | dose: 100.0 mg/kg/injection, schedule: Q04DX002 (ip), vehicle: carboxymethylcellulose (CMC) 97 % of control | dose: 100.0 mg/kg/injection, schedule: Q04DX003 (ip), vehicle: carboxymethylcellulose (CMC) 100 % of control | dose: 200.0 mg/kg/injection, schedule: Q01DX001 (ip), vehicle: carboxymethylcellulose (CMC) 103 % of control | dose: 200.0 mg/kg/injection, schedule: Q01DX009 (ip), vehicle: carboxymethylcellulose (CMC) 95 % of control and 96 % of control | dose: 200.0 mg/kg/injection, schedule: Q04DX002 (ip), vehicle: carboxymethylcellulose (CMC) 89 % of control | dose: 200.0 mg/kg/injection, schedule: Q04DX003 (ip), vehicle: carboxymethylcellulose (CMC) 97 % of control | dose: 400.0 mg/kg/injection, schedule: Q01DX001 (ip), vehicle: carboxymethylcellulose (CMC) 106 % of control | dose: 400.0 mg/kg/injection, schedule: Q01DX009 (ip), vehicle: carboxymethylcellulose (CMC) 101 % of control | dose: 400.0 mg/kg/injection, schedule: Q04DX002 (ip), vehicle: carboxymethylcellulose (CMC) 100 % of control | dose: 400.0 mg/kg/injection, schedule: Q04DX003 (ip), vehicle: carboxymethylcellulose (CMC) 100 % of control

CCCCCCCCCCC(S(=O)(=O)CC)S(=O)(=O)CC
inactive: dose: 100.0 mg/kg/injection, schedule: Q01DX001 (ip), vehicle: Klucel (hydroxypropylcellulose) (HPC) 97 % of control | dose: 200.0 mg/kg/injection, schedule: Q01DX001 (ip), vehicle: Klucel (hydroxypropylcellulose) (HPC) 94 % of control

Nc1ccccc1S(=O)(=O)Nc1ccccc1
inactive: [5] 98 % of control | [6] 92 % of control | [7] 95 % of control | [8] 97 % of control | [9] 87 % of control | [10] 100 % of control

COC1N(C2CC(O)C(CO)O2)C(=O)NC(=O)C1(F)Br (stereo unspecified)
inactive: dose: 5.0 mg/kg/injection, schedule: Q01DX009 (ip), vehicle: saline 123 % of control | dose: 10.0 mg/kg/injection, schedule: Q01DX009 (ip), vehicle: saline 112 % of control | dose: 20.0 mg/kg/injection, schedule: Q01DX009 (ip), vehicle: saline 122 % of control | [3] 105 % of control | [4] 102 % of control | dose: 50.0 mg/kg/injection, schedule: Q01DX009 (ip), vehicle: saline 103 % of control | dose: 80.0 mg/kg/injection, schedule: Q04DX003 (ip), vehicle: saline 117 % of control | dose: 100.0 mg/kg/injection, schedule: Q01DX009 (ip), vehicle: saline 98 % of control | dose: 160.0 mg/kg/injection, schedule: Q04DX003 (ip), vehicle: saline 108 % of control | dose: 200.0 mg/kg/injection, schedule: Q01DX009 (ip), vehicle: saline 102 % of control | dose: 400.0 mg/kg/injection, schedule: Q01DX009 (ip), vehicle: saline 94 % of control

CCOC(=O)C(C)(O)C1(Cl)CCC(C(C)(C)C)CC1 (stereo unspecified)
inactive: dose: 100.0 mg/kg/injection, schedule: Q04DX002 (ip), vehicle: saline 103 % of control | dose: 200.0 mg/kg/injection, schedule: Q04DX002 (ip), vehicle: saline 103 % of control | dose: 400.0 mg/kg/injection, schedule: Q04DX002 (ip), vehicle: saline 100 % of control

c1ccc([As](C[As](c2ccccc2)c2ccccc2)c2ccccc2)cc1
inactive: dose: 50.0 mg/kg/injection, schedule: Q04DX003 (ip), vehicle: Klucel (hydroxypropylcellulose) (HPC) 91 % of control | [6] 97 % of control | [8] 96 % of control | [10] 92 % of control

Brc1ccc2c(c1)/C(=C/c1ccccc1)c1ccccc1-2
inactive: dose: 25.0 mg/kg/injection, schedule: Q04DX002 (ip), vehicle: DMSO 92 % of control | dose: 50.0 mg/kg/injection, schedule: Q04DX002 (ip), vehicle: DMSO 95 % of control

CCOc1cc(/C=N/NC(=O)COCC(=O)N/N=C/c2ccc(O)c(OCC)c2)ccc1O
inactive: [5] 88 % of control | [7] 92 % of control | [9] 97 % of control

COc1cc(Br)c(CC(=O)O)cc1OC
inactive: dose: 100.0 mg/kg/injection, schedule: Q04DX003 (ip), vehicle: acetone 96 % of control | dose: 200.0 mg/kg/injection, schedule: Q04DX003 (ip), vehicle: acetone 95 % of control | dose: 400.0 mg/kg/injection, schedule: Q04DX003 (ip), vehicle: acetone 93 % of control

O=C(NC/C=C/Br)NC1CCCc2ccccc21 (stereo unspecified)
inactive: [11] 106 % of control | [12] 110 % of control | dose: 400.0 mg/kg/injection, schedule: Q01DX009 (ip), vehicle: other 100 % of control

O=S1(=O)CCCO1
inactive: [11] 103 % of control | [12] 109 % of control

CC(=O)OCCc1nnnn1C
inactive: [1] 108 % of control | [2] 104 % of control | dose: 400.0 mg/kg/injection, schedule: Q01DX001 (ip), vehicle: saline 103 % of control

CCOC1=C(Br)C=CN(S(=O)(=O)c2ccc(C)cc2)c2ccc(OC)cc21
inactive: [5] 98 % of control | [6] 95 % of control | [7] 101 % of control | [8] 101 % of control | [9] 100 % of control | [10] 91 % of control

From PubChem BioAssay AID248 (DTP/NCI, 2004)
